Data taken from PMC4955742 (Molecular bioSystems, 2016).
Like-named read-outs stand apart in the source and are kept apart here.

Legend:
Experiment in all cases: intrinsic tryptophan fluorescence quenching
Type in all cases: binding
HucR-H51F [1] = molecular target: T1, HucR-H51F (Deinococcus radiodurans, UniProt Q9RV71, H51F)
[2] = molecular target: T2, HucR (hypothetical uricase regulator), HucR-WT (Deinococcus radiodurans, UniProt Q9RV71)
T2 sequence (Q9RV71 1-181): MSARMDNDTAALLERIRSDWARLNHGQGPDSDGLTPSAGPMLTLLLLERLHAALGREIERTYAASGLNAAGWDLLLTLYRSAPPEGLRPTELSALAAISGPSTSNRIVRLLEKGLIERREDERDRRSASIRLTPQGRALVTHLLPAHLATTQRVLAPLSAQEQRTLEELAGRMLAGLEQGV

HucR-E48Q [3] = molecular target: T3, HucR-E48Q (Deinococcus radiodurans, UniProt Q9RV71, E48Q)
HucR-E48Q [4] = molecular target: T3, HucR-E48Q; remark: listed apart in the source
HucR-H51F [5] = molecular target: T1, HucR-H51F; remark: listed apart in the source
[6] = molecular target: T2, HucR (hypothetical uricase regulator), HucR-WT; remark: listed apart in the source

| Compound | Kd (HucR-H51F [1]) [µM] | Kd [2] [µM] | Kd (HucR-E48Q [3]) [µM] | Kd (HucR-E48Q [4]) [µM] | Kd (HucR-H51F [5]) [µM] | Kd [6] [µM] |
| --- | --- | --- | --- | --- | --- | --- |
| O=c1[nH]c(=O)c2[nH]c(=O)[nH]c2[nH]1 [urate] | 14.7 ± 1.2 | 11.4 ± 2.9 | 2.2 ± 0.8 |  |  |  |
| O=c1[nH]c(=O)c2[nH]cnc2[nH]1 [xanthine] |  |  |  | ~17 | ~17 | ~17 |
